In experiment [1] the test system is K aerogenes E70. As to the kind of experiment: Antibacterial activity, standard MIC test. The class given is cell-based. The note with it: Klebsiella aerogenes, compound alone. From the text:
(§1) Using conventional methods the following results were obtained in a standard MIC test: […]

Experiment [2] relates to St aureus Russell. As to the kind of experiment: Antibacterial activity, standard MIC test. The settings on record: Staphylococcus aureus, compound alone. The class given is cell-based.
From the text: as §1

Experiment [3] concerns E coli JT39. As to the kind of experiment: Antibacterial activity, standard MIC test. In kind it is cell-based, Escherichia coli. The note with it: compound alone.
From the text: as §1

The test system of experiment [4] is St aureus Russell. As to the kind of experiment: Synergistic activity with amoxycillin, standard MIC test. In kind it is cell-based, Staphylococcus aureus. The settings on record: amoxycillin alone.
From the text: (§2) Synergistic Activity with Amoxycillin
as §1

Experiment [5] has as its system K aerogenes E70. Described as above. In kind it is cell-based, Klebsiella aerogenes. The settings on record: amoxycillin alone.
From the text: as §2, §1

Experiment [6] relates to E coli JT39. Described as above. The class given is cell-based, Escherichia coli. The settings on record: amoxycillin alone.
From the text: as §2, §1

Setting [7] is: Escherichia coli, read-out: MIC.

Values after ≈ are worked out from the molar mass of the structure shown. Where two headings read alike, the source gives them in different places.

In the case of `O=C(O)CCCCNC/C=C1\O[C@@H]2CC(=O)N2[C@H]1C(=O)O` [3(c), 9-N-(4'-Carboxybutyl)aminodeoxyclavulanic acid], the minimum inhibitory concentration (MIC) (as a rule, the lowest concentration that inhibits growth of the organism) against K aerogenes E70 [1] turned out to be 250 µg/mL (≈ 838 µM); against St aureus Russell [2] it was 31 µg/mL (≈ 104 µM); with E coli JT39 [3] (setting [7]) it was 62.5 µg/mL (≈ 210 µM).

In the case of `O=C(O)c1ccc(CNC/C=C2\O[C@@H]3CC(=O)N3[C@H]2C(=O)O)cc1` [4(c), 9-N-(4'-Carboxybenzyl)aminodeoxyclavulanic acid], the results for the MIC in the experiment on K aerogenes E70 [1], in the experiment with St aureus Russell [2] and in the experiment with E coli JT39 [3] (setting [7]) were 250 µg/mL (≈ 752 µM), 4 µg/mL (≈ 12 µM) and 31 µg/mL (≈ 93.3 µM), respectively.

Take `O=C(O)[C@H]1/C(=C/CNC[C@H]2CC[C@H](C(=O)O)CC2)O[C@@H]2CC(=O)N21` [12(d), 9-N-(trans-4'-Carboxycyclohexylmethyl)aminodeoxyclavulanic acid]: the MIC in the experiment on K aerogenes E70 [1] was 250 µg/mL (≈ 739 µM); in the experiment on St aureus Russell [2], 16 µg/mL (≈ 47.3 µM); with E coli JT39 [3] (setting [7]), 31 µg/mL (≈ 91.6 µM).

As for `N[C@@H](CCCCNC/C=C1\O[C@@H]2CC(=O)N2[C@H]1C(=O)O)C(=O)O` [14(d)], the MIC is above 500 µg/mL against K aerogenes E70 [1], 31 µg/mL (≈ 94.7 µM) with St aureus Russell [2] and 125 µg/mL (≈ 382 µM) in the experiment on E coli JT39 [3].

As to `COC(=O)CCNC/C=C1\O[C@@H]2CC(=O)N2[C@H]1C(=O)O` [6(b), 9-N-(2'-Methoxycarbonylethyl)aminodeoxyclavulanic acid], the minimum inhibitory concentration (MIC) is 250 µg/mL (≈ 879 µM) against K aerogenes E70 [1], 8 µg/mL (≈ 28.1 µM) in the experiment with St aureus Russell [2] and 31 µg/mL (≈ 109 µM) in the experiment with E coli JT39 [3] (setting [7]).

As for `O=C(O)CCCCCCCCCCNC/C=C1\O[C@@H]2CC(=O)N2[C@H]1C(=O)O` [11(b), 9-N-(10'-Carboxydecyl)aminodeoxyclavulanic acid], the values for the MIC in the experiment with K aerogenes E70 [1] and with St aureus Russell [2] were above 500 µg/mL and 8 µg/mL (≈ 20.9 µM), respectively.

As to `O=C(O)CCCCCNC/C=C1\O[C@@H]2CC(=O)N2[C@H]1C(=O)O` [9(b), 9-N-(5'-Carboxypentyl)aminodeoxyclavulanic acid], the minimum inhibitory concentration (MIC) amounted to 250 µg/mL (≈ 800 µM) in the experiment on K aerogenes E70 [1], 31 µg/mL (≈ 99.3 µM) in the experiment with St aureus Russell [2] and 31 µg/mL (≈ 99.3 µM) in the experiment on E coli JT39 [3] (setting [7]).

Consider `CC1(C)S[C@@H]2[C@H](NC(=O)[C@H](N)c3ccc(O)cc3)C(=O)N2[C@H]1C(=O)O` [Amoxycillin], for which the MIC amoxycillin with St aureus Russell [4] was 500 µg/mL; in the experiment on K aerogenes E70 [5], 500 µg/mL; in the experiment with E coli JT39 [6], 2000 µg/mL.

Take `O=C(O)CCNC/C=C1\O[C@@H]2CC(=O)N2[C@H]1C(=O)O` [1(b), 9-N-(2'-Carboxyethyl)aminodeoxyclavulanic acid]: the figures for the MIC with K aerogenes E70 [1], against St aureus Russell [2] and with E coli JT39 [3] (setting [7]) were above 500 µg/mL, 31 µg/mL (≈ 115 µM) and 15 µg/mL (≈ 55.5 µM), respectively.

Regarding `O=C(O)CCCNC/C=C1\O[C@@H]2CC(=O)N2[C@H]1C(=O)O` [10(b), 9-N-(3'-Carboxypropyl)aminodeoxyclavulanic acid], the MIC in the experiment on K aerogenes E70 [1] was determined as 250 µg/mL (≈ 879 µM); in the experiment on St aureus Russell [2] it was 62.5 µg/mL (≈ 220 µM); in the experiment on E coli JT39 [3] (setting [7]), 31 µg/mL (≈ 109 µM).

The record behind these values is patent publication US4539202A, “Derivatives of clavulanic acid, a process for their preparation and their use” (Beecham Group p.l.c., priority 1983, dated 1985).
